Here are results for eight compounds from patent US20070243182A1, “Use of Carboxypeptidease G for Combating Antifolate Toxicity” (Protherics Medicines Development Limited, priority 2004, published 2007).

Read-outs that look alike come from different tables or passages of the source.

Data set [1] addresses T1, CPG2 (Pseudomonas sp., UniProt P06621). Conditions: substrate of CPG2; Sherwood et al (1985); cited from earlier work.
In data set [2] the target is T1, CPG2. It is filed as biochemical, Pseudomonas sp. strain RS-16. As to the method:
A stock solution of 10 mM Tomudex in 100 mM Tris-HCl pH7.3 was prepared and used to prepare a series of dilutions from 0-100 μM in 100 mM Tris-HCl pH 7.3. 990 μl of each dilution was placed in a quartz cuvette and pre-warmed to 37° C. 10 μl of enzyme solution was added to initiate the reaction and the progress of the reaction was followed by measuring the rate of change in absorbance at 356 nm.
Measurement of the rate of reaction at a range of substrate concentrations, from 1-100 μM allows the Km and kcat for the enzyme to be determined using appropriate computer software such as “Enzfitter” (Biosoft; Cambridge, UK).
A stock solution of 10 mM LY309887 in 100 mM Tris-HCl pH7.3 is prepared and used to prepare a series of dilutions from 0-100 μM in 100 mM Tris-HCl pH 7.3. 990 μl of each dilution is placed in a quartz cuvette and pre-warned to 37° C. 10 μl of enzyme solution is added to initiate the reaction and the progress of the reaction is followed by measuring the rate of change in absorbance at a suitable wavelength. […] Measurement of the rate of reaction at a range of substrate concentrations, from 1-100 μM allows the Km and kcat for the enzyme to be determined using Enzfitter computer software.
A stock solution of 10 mM AG2034 in 100 mM Tris-HCl pH7.3 is prepared and used to prepare a series of dilutions from 0-100 μM in 100 mM Tris-HCl pH 7.3. 990 μl of each dilution is placed in a quartz cuvette and pre-warmed to 37° C. 10 μl of enzyme solution is added to initiate the reaction and the progress of the reaction is followed by measuring the rate of change in absorbance at a suitable wavelength. […] Measurement of the rate of reaction at a range of substrate concentrations, from 1-100 μM allows the Km and kcat for the enzyme to be determined using Enzfitter computer software.
A stock solution of 10 mM AG2037 in 100 mM Tris-HCl pH7.3 is prepared and used to prepare a series of dilutions from 0-100 μM in 100 mM Tris-HCl pH 7.3. 990 μl of each dilution is placed in a quartz cuvette and pre-warmed to 37° C. 10 μl of enzyme solution is added to initiate the reaction and the progress of the reaction is followed by measuring the rate of change in absorbance at a suitable wavelength. […] Measurement of the rate of reaction at a range of substrate concentrations, from 1-100 μM allows the Km and kcat for the enzyme to be determined using Enzfitter computer software.

The conditions of data set [3]: 3-weekly schedule, paediatric population; cited from earlier work.
Another data set concerns bone marrow cells. Conditions: MTX 100 μM, leucovorin calcium 1,000 μM; cited from earlier work.
The nature of data set [4]: Rescue of Tomudex toxicity in a patient by administration of CPG2 (with or without thymidine). It is filed as in vivo. Conditions: thymidine given together with CPG2 to a patient with toxic plasma levels of Tomudex.
Description: A patient who has been administered Tomudex and has toxic plasma levels of Tomudex is administered a dose of 50 Units per kg body weight of CPG2 by intravenous injection over a period of about 5 minutes.
A patient who has been administered Tomudex and has toxic plasma levels of Tomudex is administered a dose of 50 Units per kg body weight of CPG2 by intravenous injection over a period of about 5 minutes and is also administered thymidine.
Where [5] appears, read: example in present tense, no values given.
Where [6] appears, read: substrate of CPG2, spectrophotometric assay, 100 mM Tris-HCl pH 7.3, 37° C., 356 nm.

T1 sequence (P06621 23-415): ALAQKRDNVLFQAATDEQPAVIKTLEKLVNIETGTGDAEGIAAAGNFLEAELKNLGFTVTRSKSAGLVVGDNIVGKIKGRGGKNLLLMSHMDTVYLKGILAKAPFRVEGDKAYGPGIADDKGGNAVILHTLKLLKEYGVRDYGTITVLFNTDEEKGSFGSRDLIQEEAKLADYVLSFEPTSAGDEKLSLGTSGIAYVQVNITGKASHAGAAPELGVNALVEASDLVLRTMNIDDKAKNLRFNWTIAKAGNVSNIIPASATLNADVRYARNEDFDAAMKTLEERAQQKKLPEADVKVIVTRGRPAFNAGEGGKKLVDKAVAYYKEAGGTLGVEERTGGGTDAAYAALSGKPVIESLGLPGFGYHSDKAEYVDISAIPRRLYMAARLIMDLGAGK

`Nc1nc2c(c(=O)[nH]1)N(C=O)C(CNc1ccc(C(=O)N[C@@H](CCC(=O)O)C(=O)O)cc1)CN2` (some centres unmarked) [5-formyl TIE, 5-formyl tetrahydrofolic acid]: the Km (as a rule, the substrate concentration at which the rate is half of its maximum) at CPG2 [1] was 120 µM.
In the case of `CN1c2c(nc(N)[nH]c2=O)NCC1CNc1ccc(C(=O)N[C@@H](CCC(=O)O)C(=O)O)cc1` (some centres unmarked) [5-methyl THF], the Michaelis-Menten constant (Km) at CPG2 [1] is 34 µM.
Take `Cc1cc(C(=O)N[C@@H](CCC(=O)O)C(=O)O)sc1CC[C@@H]1CNc2nc(N)[nH]c(=O)c2C1` [AG2037]: at CPG2 [2] (setting [5]), the “substrate of CPG2 (contacted with CPG2 in vitro)” value is listed as “found to be a substrate of CPG2”.
On the same count and under the same terms, next, `Nc1nc2c(c(=O)[nH]1)C[C@@H](CCc1ccc(C(=O)N[C@@H](CCC(=O)O)C(=O)O)s1)CN2` [LY309887]: “found to be a substrate of CPG2”.
Regarding `Cc1nc2ccc(CN(C)c3ccc(C(=O)N[C@@H](CCC(=O)O)C(=O)O)s3)cc2c(=O)[nH]1` [Tomudex], the “substrate of CPG2 (contacted with CPG2 in vitro)” value at CPG2 [2] is reported as “found to a substrate of CPG2”. Further, on CPG2 [2] (setting [6]), the Michaelis constant (Km) came out at 7.8 µM; the kcat (as a rule, the number of substrate molecules converted per active site and unit of time at saturation) was determined as 24 s⁻¹. Further, the maximum tolerated dose in data set [3] is 6 mg/m^2.
For the compound `Nc1nc2ncc(CNc3ccc(C(=O)N[C@@H](CCC(=O)O)C(=O)O)cc3)nc2c(=O)[nH]1` [folate], on CPG2 [1], the Km was 4 µM.
In the case of `Nc1nc(=O)c2c([nH]1)NCC(CNc1ccc(C(=O)N[C@@H](CCC(=O)[O-])C(=O)[O-])cc1)N2C=O.[Ca+2]` (some centres unmarked) [leucovorin calcium, calcium salt of 5-formyl tetrahydrofolic acid], in the data set on bone marrow cells, the “protection of bone marrow cells from MTX toxicity” value is “unable to protect bone marrow cells from toxicity”.
Turning to `Cc1cn([C@H]2C[C@H](O)[C@@H](CO)O2)c(=O)[nH]c1=O` [thymidine], in data set [4], the “rescue of cellular toxicity associated with Tomudex” value was “rescues the cellular toxicity associated with the Tomudex”.
